Results taken from patent US6255098A, “DS11 (KCTC 0231BP), novel Bacillus sp. strain and novel phytase produced by it” (priority 1996, dated 2001).

Biological target: T1, novel phytase produced by Bacillus sp. DS11 (KCTC 0231BP), N-terminal amino acid sequence SEQ ID NO: 1 (Bacillus sp., UniProt O66037)
T1 construct: made in house; host or cells: Bacillus sp; DS11 (KCTC 0231BP), native producer strain; enzyme purified from culture supernatant
Assay: biochemical
Type: biochemical
Conditions: for enzyme activity with additive (Non-addition = 100): 30 min
Protocol: The potency of produced enzyme was measured as follows: By using a substrate, comprising 2 mM phytic acid sodium salts and 2 mM CaCl2 in 0.1 M Tris buffer solution (pH 7.0), the enzyme was reacted at 37° C. for 30 minutes to measure the amount of phosphoric acid generated. One unit of the enzymatic potency is equivalent to the enzymatic amount degrading 1 μ mol of inorganic phosphate per 1 minute. As a result of said measurement, the novel enzyme has the enzymatic potency of 0.3 unit per protein mg. The maximum amount of enzyme in fermentation yielding 0.6 unit/mg was obtained when 30 l of strains, a working volume, was charged to a 50 l fermenter and cultivated at 37° C. for 48 hours under the following conditions: air influx--0.8 vvm; stirring rate--150 rpm.
2 l of novel strain solution, cultivated according to the procedure as described in said Example, was centrifuged for 15 minutes. Then, the supernatant solution was saturated with 50% acetone to precipitate proteins and the crude enzyme solution passed through dialysis membrane was purified on a column containing phenyl sepharose CL-4B, Resource S and superose 12 HR 10/30 (all of which are manufactured by Pharmacia, Sweden) so as to isolate the phytase enzyme only. The analytical results by said column are represented in the attached drawing FIG. 2.

[1] = 0.5 h, pH 7, read-out: enzyme activity with additive (Non-addition = 100)

T1 sequence (O66037 31-383): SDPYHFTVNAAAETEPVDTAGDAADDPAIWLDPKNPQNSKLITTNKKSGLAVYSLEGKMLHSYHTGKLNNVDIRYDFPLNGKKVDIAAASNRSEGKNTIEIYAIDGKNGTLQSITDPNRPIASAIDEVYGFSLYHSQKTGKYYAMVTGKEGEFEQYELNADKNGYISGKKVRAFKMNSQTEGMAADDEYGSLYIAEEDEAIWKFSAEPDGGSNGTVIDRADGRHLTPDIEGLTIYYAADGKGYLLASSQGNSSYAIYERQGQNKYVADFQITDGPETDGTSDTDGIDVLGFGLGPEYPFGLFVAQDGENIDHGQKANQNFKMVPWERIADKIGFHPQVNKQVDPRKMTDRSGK

SMILES | inhibition of enzyme activity (in words) | remaining activity at 1000 µM [1] | remaining activity at 5000 µM [1] | enzyme activity with additive (Non-addition = 100) (additive concentration 1 mM) | enzyme activity with additive (Non-addition = 100) (additive concentration 5 mM)
O=C(O)CN(CCN(CC(=O)O)CC(=O)O)CC(=O)O [EDTA] | inhibited the entire enzyme activity | 7.5% | 7.6% |  | 
O=S(=O)(F)Cc1ccccc1 [PMSF] |  |  |  | 86 | 88
